# Patent US20220265656A1, “COMBINATION THERAPIES WITH IRE1 SMALL MOLECULE INHIBITORS” (Cornell University, priority 2019, published 2022)
# Counter-ions that a name gives are not always drawn.
# How the values were obtained:
# IRE1a [1] = target: T1, IRE1a (Homo sapiens, UniProt O75460); test: IRE1a Endoribonuclease Nanoluciferase Assay in 293T cells; type: cell-based; set-up: endogenous in cells; host or cells: 293T cells; conditions: XBP1 luciferase reporter in 293T cells, ER stressor
# Procedure: Compounds disclosed herein were assessed for disruption of IRE1 signaling using a IRE1a Endoribonuclease Nanoluciferase Assay. Briefly, 2.5×10^6 293T cells were seeded in a 10 cm^2 tissue culture plate. About 24 hours later, the cells were transfected with Effectene. In a 15 mL tube, the following was added: 2 ug XBP1 luciferase reporter plasmid (PGK-Luc2-P2A-XBP1u-Nanoluciferase-PEST); 300 ul EC buffer; and 16 ul Enhancer, followed by incubation at room temp for 5 minutes. Next, 60 ul Effectene (Qiagen 301427) was added, followed by incubation at room temperature for 10 minutes, 2.6 mL cDMEM media was added. Old media was aspirated from the cells, followed by addition of 7 mL fresh media. Full transfection mixture was added dropwise to cells. Cells were incubated for 6 hours, followed by trypsinization, centrifugation and resuspension in 11 mL fresh cDMEM media, 100 uL of cells were plated per a well in a 96 well plate. A day later, ER stressors of choice +/−inhibitors were added. To harvest, media was aspirated from cells completely, then 50 uL 1× passive lysis buffer (Promega: E1941) was added per well and put on shaker (300 rpm) for 30 minutes at room temperature. Cells were centrifuged, and 15 uL sample per well was added to a new, opaque white 384 well plate (Corning 3570), 15 uL OneGlo (nanoluciferase kit, Promega N1630) was added. Plates were spun down, placed on shaker (300 rpm) for 10 minutes. Plates were read on luminometer, 1000 ms integration time per well, 15 uL Stop and Glo (nanoluciferase kit) was added. Plates were spun down, placed on shaker (300 rpm) for 10 minutes. Plates were read on luminometer, 1000 ms second integration time per well. Recordings are provided below in Table 4.
# IRE1a [2] = target: T1, IRE1a; test: In vitro FRET assay (IRE1a cleavage of XBP1 RNA probe); type: biochemical; set-up: purchased SignalChem; conditions: 2 nM IRE1a
# Procedure: In vitro FRET assay was performed to evaluate the ability of select compounds to inhibit IRE1, the results of which are summarized in Table 3. To perform the in vitro FRET assay, 1× complete assay buffer (CAB; […], 50 mM sodium citrate pH 7.15, 1 mM magnesium acetate, 0.02% tween 20) was used to dilute SignalChem IRE1a protein to a final concentration of 2 nM. Selected compounds were serially diluted with DMSO in a non-binding black 384-well plate for a total of 15 ul in each well, 2 ul of the serially diluted compound or DMSO control were then added to new wells containing 98 ul of 1×CAB, for a total volume of 100 ul, 10 ul of which were then transferred to wells of a new plate, 5 ul of the diluted IRE1a was then added to each well, 5 ul of a […] XBP1 RNA probe was then added to each well. Fluorescence was then read over 30 minutes in kinetic mode (485/515 nm).
# Two RNA probes were used, XBP1 wildtype (SEQ ID NO: 2) which is able to be spliced by active IRE1a or XBP1 mutant (SEQ ID NO: 3) which is unable to be spliced. Each probe contained a 5′ 6-FAM modification and a 3′ IOWA Black FQ modification. […]
# T1 sequence (O75460 19-977): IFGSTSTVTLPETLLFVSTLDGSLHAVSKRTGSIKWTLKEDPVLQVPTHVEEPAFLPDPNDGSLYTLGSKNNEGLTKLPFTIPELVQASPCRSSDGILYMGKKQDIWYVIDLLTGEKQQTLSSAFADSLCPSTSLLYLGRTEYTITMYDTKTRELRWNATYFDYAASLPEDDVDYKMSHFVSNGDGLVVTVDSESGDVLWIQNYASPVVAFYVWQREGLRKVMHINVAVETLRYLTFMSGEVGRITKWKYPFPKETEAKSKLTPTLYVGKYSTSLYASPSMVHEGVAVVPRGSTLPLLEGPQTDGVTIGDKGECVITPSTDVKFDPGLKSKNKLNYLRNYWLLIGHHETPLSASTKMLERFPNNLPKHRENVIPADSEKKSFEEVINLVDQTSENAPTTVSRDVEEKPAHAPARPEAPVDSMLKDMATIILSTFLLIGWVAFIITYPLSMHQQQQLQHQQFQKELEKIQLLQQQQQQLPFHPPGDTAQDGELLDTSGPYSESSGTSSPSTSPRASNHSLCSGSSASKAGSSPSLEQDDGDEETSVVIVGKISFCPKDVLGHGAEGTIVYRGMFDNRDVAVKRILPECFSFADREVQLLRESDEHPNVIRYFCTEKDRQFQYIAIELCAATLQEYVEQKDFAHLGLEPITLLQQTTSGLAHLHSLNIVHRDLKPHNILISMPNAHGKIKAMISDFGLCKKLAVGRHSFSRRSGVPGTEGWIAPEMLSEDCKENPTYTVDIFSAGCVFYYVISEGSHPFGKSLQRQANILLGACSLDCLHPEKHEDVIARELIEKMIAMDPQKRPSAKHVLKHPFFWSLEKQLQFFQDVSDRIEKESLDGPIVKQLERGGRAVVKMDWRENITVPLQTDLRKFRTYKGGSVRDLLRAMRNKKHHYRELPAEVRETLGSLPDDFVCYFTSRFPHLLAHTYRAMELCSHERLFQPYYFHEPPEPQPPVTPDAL
Structure (SMILES),EC50 (IRE1a [1]) [nM],IC50 (IRE1a [2]) [nM],Mean EC50 (IRE1a [1])
CCc1cc(-c2ccc(NS(=O)(=O)c3ccccc3Cl)c(F)c2)cc2cnc(N[C@@H]3CCC[C@H](N)C3)nc12 [72; Formic Acid Salt],100 to 10000,,
COc1nc(NS(=O)(=O)c2ccccc2Cl)ccc1-c1cc(C)c2nc(N[C@H]3CC[C@H](N(C)C)CC3)ncc2c1 [133; Formic Acid Salt],≤ 5,≤ 5,
N[C@H]1CC[C@H](Nc2ncc3cc(-c4nnc(NS(=O)(=O)c5ccccc5Cl)s4)ccc3n2)CC1 [89; Formic Acid Salt],100 to 10000,,
CCc1cc(-c2ccc(NS(=O)(=O)c3ccccc3Cl)nc2OC)cc2cnc(N[C@H]3CC[C@H](N(C)C)CC3)nc12 [99; Formic Acid Salt],≤ 5,≤ 5,
CCc1cc(-c2ccc(NS(=O)(=O)c3ccccc3Cl)nc2C)cc2cnc(N[C@H]3CC[C@H](N(C)CCOC)CC3)nc12 [132; Formic Acid Salt],≤ 5,≤ 5,
COc1nc(NS(=O)(=O)c2ccccc2Cl)ccc1-c1cc(C)c2nc(N[C@H]3CC[C@@H](N(C)C)CC3)ncc2c1 [139; Formic Acid Salt],,5 to 50,
N[C@H]1CC[C@H](Nc2ncc3cc(-c4cc(F)c(NS(=O)(=O)c5ccccc5Cl)cc4F)ccc3n2)CC1 [53; Formic Acid Salt],≤ 5,≤ 5,
CCc1cc(-c2ccc(NS(=O)(=O)c3ccccc3Cl)nc2C)cc2cnc(N[C@H]3CC[C@H](N(C)CC(F)(F)F)CC3)nc12 [126; Formic Acid Salt],,50 to 100,
COc1nc(NS(=O)(=O)c2ccccc2Cl)ccc1-c1cc(F)c2nc(N[C@H]3CC[C@H](N(C)C)CC3)ncc2c1 [148; Formic Acid Salt],≤ 5,≤ 5,
COc1nc(NS(=O)(=O)c2ccccc2Cl)c(F)cc1-c1cc(C)c2nc(N[C@H]3CC[C@H](N(C)C)CC3)ncc2c1 [145; Formic Acid Salt],≤ 5,≤ 5,
CCc1cc(-c2ccc(NS(=O)(=O)c3cccc(F)c3Cl)nc2C)cc2cnc(N[C@H]3CC[C@H](N(C)C)CC3)nc12 [158; Formic Acid Salt],≤ 5,≤ 5,
COc1nc(NS(=O)(=O)c2ccccc2Cl)c(F)cc1-c1cc(C)c2nc(N[C@H]3CC[C@@H](N(C)C)CC3)ncc2c1 [147; Formic Acid Salt],,5 to 50,
CCc1cc(-c2cc(F)c(NS(=O)(=O)c3ccccc3Cl)nc2OC)cc2cnc(N[C@H]3CC[C@H](N(C)C)CC3)nc12 [128; Formic Acid Salt],≤ 5,≤ 5,
CCc1cc(-c2ccc(NS(=O)(=O)c3ccccc3Cl)nc2OC)cc2cnc(N[C@H]3CC[C@@H](N(C)C)CC3)nc12 [141; Formic Acid Salt],100 to 10000,≤ 5,
CCc1c(F)c(-c2cc(F)c(NS(=O)(=O)c3ccccc3Cl)nc2OC)cc2cnc(N[C@H]3CC[C@H](N(C)C)CC3)nc12 [163; Formic Acid Salt],≤ 5,≤ 5,
COCc1cc(-c2ccc(NS(=O)(=O)c3ccccc3Cl)nc2OC)cc2cnc(N[C@H]3CC[C@H](N(C)C)CC3)nc12 [137; Formic Acid Salt],≤ 5,≤ 5,
CCc1cc(-c2cc(F)c(NS(=O)(=O)c3ccccc3Cl)nc2OC)cc2cnc(N[C@H]3CC[C@@H](N(C)C)CC3)nc12 [142; Formic Acid Salt],,5 to 50,
CCc1c(F)c(-c2cc(F)c(NS(=O)(=O)c3ccccc3Cl)nc2C)cc2cnc(N[C@H]3CC[C@H](N(C)C)CC3)nc12 [162; Formic Acid Salt],≤ 5,≤ 5,
Cc1nc(NS(=O)(=O)c2ccccc2Cl)ccc1-c1cc(C(C)(F)F)c2nc(N[C@H]3CC[C@H](N(C)C)CC3)ncc2c1 [131; Formic Acid Salt],≤ 5,≤ 5,

Structure (SMILES),EC50 (IRE1a [1]) [nM],IC50 (IRE1a [2]) [nM],Mean EC50 (IRE1a [1])
CCc1cc(-c2cnc(NS(=O)(=O)c3ccccc3Cl)cc2OC)cc2cnc(N[C@H]3CC[C@H](N)CC3)nc12 [92; Formic Acid Salt],100 to 10000,,
N[C@H]1CC[C@@H](Nc2ncc3cc(-c4ccc(NS(=O)(=O)c5ccccc5Cl)c(F)c4)ccc3n2)C1 [80; Formic Acid Salt],100 to 10000,,
CCc1cc(-c2nnc(NS(=O)(=O)c3ccccc3Cl)cc2OC)cc2cnc(N[C@H]3CC[C@H](N(C)C)CC3)nc12 [159; Formic Acid Salt],5 to 50,≤ 5,
CCc1cc(-c2cnc(NS(=O)(=O)c3ccccc3Cl)nc2OC)cc2cnc(N[C@H]3CC[C@H](N(C)C)CC3)nc12 [154; Formic Acid Salt],≤ 5,≤ 5,
CCc1cc(-c2ccc(NS(=O)(=O)c3ccccc3Cl)c(F)c2)cc2cnc(N[C@H]3CC[C@H](N4CCCC4)CC3)nc12.O=CO [88; Formic Acid Salt],,,","
CCc1cc(-c2ccc(N(C)S(=O)(=O)c3ccccc3Cl)cc2C)cc2cnc(N[C@H]3CC[C@H](N)CC3)nc12 [31; Formic Acid Salt],,100 to 10000,
CCc1cc(-c2cc(NS(=O)(=O)c3ccccc3Cl)n[nH]2)cc2cnc(N[C@H]3CC[C@H](N)CC3)nc12 [29; Formic Acid Salt],100 to 10000,,
N[C@H]1CCC[C@@H](Nc2ncc3cc(-c4ccc(NS(=O)(=O)c5ccccc5Cl)c(F)c4)ccc3n2)C1 [75; Formic Acid Salt],100 to 10000,≤ 5,
CCc1c(F)c(-c2ccc(NS(=O)(=O)c3ccccc3Cl)nc2C)cc2cnc(N[C@H]3CC[C@H](N(C)C)CC3)nc12 [161; Formic Acid Salt],≤ 5,≤ 5,
CCc1cc(-c2ccc(NS(=O)(=O)c3ccccc3Cl)nc2OC)cc2cnc(N[C@H]3CC[C@@](C)(N(C)C)CC3)nc12 [143; Formic Acid Salt],,5 to 50,
CCc1cc(-c2cnc(NS(=O)(=O)c3ccccc3Cl)c(F)c2)cc2cnc(N[C@H]3CC[C@H](N(C)C)CC3)nc12 [95; Formic Acid Salt],≤ 5,≤ 5,
CCc1cc(-c2ccc(NS(=O)(=O)c3cccc(C)c3Cl)nc2C)cc2cnc(N[C@H]3CC[C@H](N(C)C)CC3)nc12 [160; Formic Acid Salt],≤ 5,≤ 5,
CCc1cc(-c2ccc(NS(=O)(=O)c3cccc(Cl)c3Cl)nc2C)cc2cnc(N[C@H]3CC[C@H](N(C)C)CC3)nc12 [152; Formic Acid Salt],≤ 5,≤ 5,
CCc1cc(-c2ccc(NS(=O)(=O)c3ccccc3Cl)nc2C)cc2cnc(N[C@H]3CC[C@H](N(C)CC4CCC4)CC3)nc12 [130; Formic Acid Salt],≤ 5,≤ 5,
CCc1cc(-c2ccc(NS(=O)(=O)c3ccccc3C)nc2OC)cc2cnc(N[C@H]3CC[C@H](N(C)C)CC3)nc12 [119; Formic Acid Salt],≤ 5,≤ 5,
CCc1cc(-c2ccc(NS(=O)(=O)c3ccccc3Cl)nn2)cc2cnc(N[C@H]3CC[C@H](NC)CC3)nc12 [61; Formic Acid Salt],≤ 5,≤ 5,
Cc1nc(NS(=O)(=O)c2ccccc2Cl)c(F)cc1-c1cc(F)c2nc(N[C@H]3CC[C@H](N(C)C)CC3)ncc2c1 [156; Formic Acid Salt],,100 to 10000,
COc1nc(NS(=O)(=O)c2ccccc2Cl)c(F)cc1-c1cc(F)c2nc(N[C@H]3CC[C@H](N(C)C)CC3)ncc2c1 [155; Formic Acid Salt],50 to 100,≤ 5,
COc1nc(NS(=O)(=O)c2ccccc2Cl)c(F)cc1-c1ccc2nc(N[C@H]3CC[C@H](N(C)C)CC3)ncc2c1 [149; Formic Acid Salt],5 to 50,≤ 5,
